Key:
Assay type in all cases: in vivo
[1] = system: cotton melon aphid (Aphis gossypii (Glover)); assay: whole plant or invertebrate; settings: Aphis gossypii, 144 h, 6 days; for mortality at 250 ppm: sprayed at 250 ppm; for mortality at 50 ppm: sprayed at 50 ppm
Method: (§1) Test compounds were formulated using a solution containing 10% acetone, […] and 300 ppm Activator 909 non-ionic surfactant (Loveland Products, Loveland, Colorado, USA). The formulated compounds were applied in 1 mL of liquid through an atomizer nozzle positioned 1.27 cm (0.5 inches) above the top of each test unit. Test compounds were sprayed at the rates indicated, and each test was replicated three times.
[…] This was pre-infested with 30-40 insects on a piece of leaf according to the cut-leaf method, and the soil of the test unit was covered with a layer of sand.
Test compounds were formulated and sprayed at 250 and/or 50 ppm. After spraying, the test units were maintained in a growth chamber for 6 days at 19° C. and 70% relative humidity. Each test unit was then visually assessed for insect mortality.

[2] = system: corn planthopper (Peregrinus maidis (Ashmead)); assay: whole plant or invertebrate; settings: Peregrinus maidis, 144 h, 6 days; for mortality at 50 ppm: sprayed at 50 ppm; for mortality at 250 ppm: sprayed at 250 ppm; for mortality at 10 ppm: sprayed at 10 ppm
Method: as §1
For evaluating control of corn planthopper (Peregrinus maidis (Ashmead)) through contact and/or systemic means, the test unit consisted of a small open container with a 3-4-day-old corn (maize) plant inside. White sand was added to the top of the soil prior to application of the test compound.
Test compounds were formulated and sprayed at 250 and/or 50 ppm and/or 10 ppm. After spraying of the formulated test compound, the test units were allowed to dry for 1 h before they were post-infested with ˜15-20 nymphs (18-to-21-day-old). A black, screened cap was placed on the top of each test unit, and the test units were held for 6 days in a growth chamber at 22-24° C. and 50-70% relative humidity. Each test unit was then visually assessed for insect mortality.

[3] = system: green peach aphid (Myzus persicae (Sulzer)); assay: Test D: control of green peach aphid on radish plant, spray; settings: Myzus persicae, 144 h, 6 days; for mortality at 250 ppm: sprayed at 250 ppm; for mortality at 50 ppm: sprayed at 50 ppm
Method: as §1
For evaluating control of green peach aphid (Myzus persicae (Sulzer)) through contact and/or systemic means, the test unit consisted of a small open container with a 12-15-day-old radish plant inside. This was pre-infested by placing on a leaf of the test plant 30-40 aphids on a piece of leaf excised from a culture plant (cut-leaf method). The aphids moved onto the test plant as the leaf piece desiccated. After pre-infestation, the soil of the test unit was covered with a layer of sand.
[…] After spraying of the formulated test compound, each test unit was allowed to dry for 1 hour and then a black, screened cap was placed on top. The test units were held for 6 days in a growth chamber at 19-21° C. and 50-70% relative humidity. Each test unit was then visually assessed for insect mortality.

Fc1cncc(-c2nccs2)c1C(F)c1ccc(SC(F)(F)F)cc1 (stereo not shown) [Compound 77]
≥ 80%: mortality at 250 ppm [1] | mortality at 50 ppm [2] | mortality at 250 ppm [2] | mortality at 250 ppm [3]

FC(c1ccc(SC(F)(F)F)cc1)c1c(Cl)cncc1-n1cccn1 (stereo not shown) [Compound 102]
≥ 80%: mortality at 50 ppm [1] | mortality at 250 ppm [1]

CC(C)(C)c1ccc(C(F)c2c(Cl)cncc2-n2nccn2)cc1 (stereo not shown) [Compound 110]
≥ 80%: mortality at 10 ppm [2] | mortality at 50 ppm [2] | mortality at 250 ppm [2]

FC(c1ccc(SC(F)(F)F)cc1)c1c(Br)cncc1-n1nccn1 (stereo not shown) [Compound 86]
≥ 80%: mortality at 50 ppm [1] | mortality at 250 ppm [1] | mortality at 50 ppm [2] | mortality at 250 ppm [2] | mortality at 50 ppm [3] | mortality at 250 ppm [3]

COC(c1ccc(SC(F)(F)F)cc1)c1c(F)cncc1-c1cc(C)no1 (stereo not shown) [Compound 82]
≥ 80%: mortality at 250 ppm [2]

O=S(=O)(c1ccc(C(F)c2c(F)cncc2-n2nccn2)cc1)C(F)(F)F (stereo not shown) [Compound 54]
≥ 80%: mortality at 50 ppm [1] | mortality at 250 ppm [1] | mortality at 50 ppm [3] | mortality at 250 ppm [3]

FC(c1ccc(SC(F)(F)F)cc1)c1ccncc1-n1ccnn1 (stereo not shown) [Compound 68]
≥ 80%: mortality at 50 ppm [1] | mortality at 250 ppm [1] | mortality at 250 ppm [3]

Fc1cncc(C2OCCO2)c1C(F)c1ccc(SC(F)(F)F)cc1 (stereo not shown) [Compound 96]
≥ 80%: mortality at 50 ppm [1] | mortality at 250 ppm [1] | mortality at 10 ppm [2] | mortality at 50 ppm [2] | mortality at 250 ppm [2] | mortality at 250 ppm [3]

FC(c1ccc(SC(F)(F)F)cc1)c1c(Br)cncc1-n1ccnn1 (stereo not shown) [Compound 87]
≥ 80%: mortality at 250 ppm [3]

[O-][S+](c1ccc(C(F)c2c(F)cncc2-n2cccn2)cc1)C(F)(F)F (stereo not shown) [Compound 73]
≥ 80%: mortality at 50 ppm [1] | mortality at 250 ppm [1]

Fc1cncc(-c2nc[nH]n2)c1C(F)c1ccc(OC(F)(F)F)cc1 (stereo not shown) [Compound 40]
≥ 80%: mortality at 50 ppm [2]

Cc1cnn(-c2cncc(F)c2C(F)c2ccc(SC(F)(F)F)cc2)c1 (stereo not shown) [Compound 6]
≥ 80%: mortality at 50 ppm [2] | mortality at 250 ppm [2]

Fc1cncc(-c2cscn2)c1C(F)c1ccc(OC(F)(F)F)cc1 (stereo not shown) [Compound 49]
≥ 80%: mortality at 250 ppm [1] | mortality at 10 ppm [2] | mortality at 50 ppm [2] | mortality at 250 ppm [2]

CCn1ccc(-c2cncc(F)c2C(F)c2ccc(OC(F)(F)F)cc2)n1 (stereo not shown) [Compound 57]
≥ 80%: mortality at 250 ppm [1] | mortality at 50 ppm [2]

COC(c1ccc(C(C)(C)C)cc1)c1c(F)cncc1-c1ncno1 (stereo not shown) [Compound 139]
≥ 80%: mortality at 50 ppm [2] | mortality at 250 ppm [2]

Fc1cncc(C2OCCCO2)c1C(F)c1ccc(SC(F)(F)F)cc1 (stereo not shown) [Compound 98]
≥ 80%: mortality at 10 ppm [2] | mortality at 50 ppm [2] | mortality at 250 ppm [2]

Fc1cncc(-c2ccc[nH]2)c1C(F)c1ccc(OC(F)(F)F)cc1 (stereo not shown) [Compound 26]
≥ 80%: mortality at 50 ppm [2] | mortality at 250 ppm [2]

Cc1cscc1-c1cncc(F)c1C(F)c1ccc(SC(F)(F)F)cc1 (stereo not shown) [Compound 114]
≥ 80%: mortality at 10 ppm [2] | mortality at 50 ppm [2] | mortality at 250 ppm [2]

COC(c1ccc(OC(F)(F)F)cc1)c1c(Cl)cncc1-n1cccn1 (stereo not shown) [Compound 52]
≥ 80%: mortality at 250 ppm [1]

COC(c1ccc(OC(F)(F)F)cc1)c1c(Br)cncc1-n1nccn1 (stereo not shown) [Compound 65]
≥ 80%: mortality at 50 ppm [2]

COC(c1ccc(SC(F)(F)F)cc1)c1c(F)cncc1-c1ncon1 (stereo not shown) [Compound 83, 3-[5-fluoro-4-[methoxy-[4-(trifluoromethylsulfanyl)phenyl]methyl]-3-pyridyl]-1,2,4-oxadiazole]
≥ 80%: mortality at 50 ppm [1] | mortality at 250 ppm [1] | mortality at 50 ppm [2] | mortality at 250 ppm [2] | mortality at 250 ppm [3]

COC(c1ccc(SC(F)(F)F)cc1)c1c(F)cncc1-c1nccs1 (stereo not shown) [Compound 75]
≥ 80%: mortality at 250 ppm [1] | mortality at 250 ppm [2]

COC(c1ccc(OC(F)(F)F)cc1)c1c(F)cncc1-c1ncno1 (stereo not shown) [Compound 138]
≥ 80%: mortality at 50 ppm [2] | mortality at 250 ppm [2]

Fc1cncc(-c2ccsc2)c1C(F)c1ccc(OC(F)(F)F)cc1 (stereo not shown) [Compound 46]
≥ 80%: mortality at 10 ppm [2] | mortality at 50 ppm [2]

Cc1ccn(-c2cncc(F)c2C(F)c2ccc(SC(F)(F)F)cc2)n1 (stereo not shown) [Compound 5]
≥ 80%: mortality at 50 ppm [2] | mortality at 250 ppm [2] | mortality at 250 ppm [3]

COC(c1ccc([S+]([O-])C(F)(F)F)cc1)c1c(F)cncc1-n1cccn1 (stereo not shown) [Compound 72]
≥ 80%: mortality at 250 ppm [1] | mortality at 250 ppm [3]

FC(c1ccc(SC(F)(F)F)cc1)c1c(Cl)cncc1-c1ncno1 (stereo not shown) [Compound 106]
≥ 80%: mortality at 50 ppm [1] | mortality at 250 ppm [1] | mortality at 10 ppm [2] | mortality at 50 ppm [2] | mortality at 250 ppm [2]

FC(c1ccc(OC(F)(F)F)cc1)c1ccncc1-n1ccnn1 (stereo not shown) [Compound 10]
≥ 80%: mortality at 50 ppm [2] | mortality at 250 ppm [2]

Cc1cncc(-n2nccn2)c1C(F)c1ccc(OC(F)(F)F)cc1 (stereo not shown) [Compound 38]
≥ 80%: mortality at 50 ppm [1] | mortality at 250 ppm [1] | mortality at 10 ppm [2] | mortality at 50 ppm [2] | mortality at 250 ppm [2] | mortality at 250 ppm [3]

O=S(=O)(c1ccc(C(F)c2c(Br)cncc2-n2nccn2)cc1)C(F)(F)F (stereo not shown) [Compound 64]
≥ 80%: mortality at 250 ppm [1] | mortality at 50 ppm [2]

FC(c1ccc(SC(F)(F)F)cc1)c1c(Br)cncc1-n1cccn1 (stereo not shown) [Compound 85]
≥ 80%: mortality at 50 ppm [1] | mortality at 250 ppm [1] | mortality at 50 ppm [2] | mortality at 250 ppm [2]

COC(c1ccc(SC(F)(F)F)cc1)c1c(F)cncc1-c1ncco1 (stereo not shown) [Compound 76]
≥ 80%: mortality at 50 ppm [1] | mortality at 250 ppm [1] | mortality at 50 ppm [2] | mortality at 250 ppm [2]

Cc1sccc1-c1cncc(F)c1C(F)c1ccc(SC(F)(F)F)cc1 (stereo not shown) [Compound 113]
≥ 80%: mortality at 50 ppm [1] | mortality at 250 ppm [1] | mortality at 10 ppm [2] | mortality at 50 ppm [2] | mortality at 250 ppm [2]

COC(c1ccc([S+]([O-])C(F)(F)F)cc1)c1c(F)cncc1-n1cncn1 (stereo not shown) [Compound 74]
≥ 80%: mortality at 50 ppm [1] | mortality at 250 ppm [1] | mortality at 50 ppm [3] | mortality at 250 ppm [3]

[O-][S+](c1ccc(C(F)c2c(I)cncc2-n2nccn2)cc1)C(F)(F)F (stereo not shown) [Compound 97]
≥ 80%: mortality at 50 ppm [1] | mortality at 250 ppm [1] | mortality at 250 ppm [3]

Fc1cncc(-c2cccs2)c1C(F)c1ccc(SC(F)(F)F)cc1 (stereo not shown) [Compound 111]
≥ 80%: mortality at 50 ppm [1] | mortality at 250 ppm [1] | mortality at 10 ppm [2] | mortality at 50 ppm [2] | mortality at 250 ppm [2]

Source: patent publication US12568969B2, “Pyridine compounds for controlling invertebrate pests” (FMC Corporation, priority 2020, dated 2026)
